Patent publication US6472348B1, “Pyridone derivatives and herbicides” (Kumiai Chemical Industry Co., Ltd., priority 1996, dated 2002)

Columns and labels:
corn (Ze) = assay: Test Example 11: crop plant selectivity by upland field foliage treatment (corn), phytotoxicity; conditions: upland field foliage treatment, dose 1.6 g ai/10a, 14th day after treatment
Outline: (§1)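 Corn and the weed species were sown together in sand-filled pots and grown in a greenhouse for 2 weeks before foliar treatment. Herbicidal effect was scored on day 14 after treatment against a graded standard scale, with corn phytotoxicity scored alongside.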

[1] = tested on: common lambsquarters (Ch); assay: Test Example 9: crop plant selectivity by upland field foliage treatment (wheat), herbicidal effects; assay type: in vivo; parameters: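 grade of growth control; 5 = at least 90%; 4 = 70 to 90%; 3 = 50 to 70%; 2 = 30 to 50%; 1 = 10 to 30%; 0 = under 10%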; conditions: dose 1.6 g ai/10a, 14th day after treatment
Outline: (§2)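 Wheat and broadleaf weeds were sown together in sand-filled pots and grown for 2 weeks in a greenhouse before foliar treatment. Herbicidal effect on weeds and phytotoxicity to wheat were scored visually against set grading standards on day 14 after treatment, with plants kept in the greenhouse.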

slender amaranth (Am) [2] = assay: as above; assay type: in vivo; parameters: scale not given here; conditions: dose 1.6 g ai/10a, 14th day after treatment
Outline: as §2

China jute (Ab) [3] = assay: as above; assay type: in vivo; parameters: scale not given here; conditions: dose 1.6 g ai/10a, 14th day after treatment
Outline: as §2

pale smartweed (Po) [4] = assay: as above; assay type: in vivo; parameters: scale not given here; conditions: dose 1.6 g ai/10a, 14th day after treatment
Outline: as §2

monochoria (Mo) = assay: Test Example 1: herbicidal effects by paddy field soil treatment; assay type: in vivo; conditions: 100 g of the active ingredient per 10 ares, 21st day after the application, index 0-5 of Table 47;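 further: grade of growth control; 5 = at least 90%; 4 = 70 to 90%; 3 = 50 to 70%; 2 = 30 to 50%; 1 = 10 to 30%; 0 = under 10%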
Outline: (§3)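 Greenhouse pot test in flooded paddy soil, dosed at 100 g a.i. per 10 ares; effect scored on day 21.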

barnyardgrass (Ec) [5] = assay: as above; assay type: in vivo; conditions: 100 g of the active ingredient per 10 ares, 21st day after the application, index 0-5 of Table 47
Outline: as §3

bulrush (Sc) = assay: as above; assay type: in vivo; conditions: 100 g of the active ingredient per 10 ares, 21st day after the application, index 0-5 of Table 47;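 further: grade of growth control; 5 = at least 90%; 4 = 70 to 90%; 3 = 50 to 70%; 2 = 30 to 50%; 1 = 10 to 30%; 0 = under 10%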
Outline: as §3

[6] = tested on: common lambsquarters (Ch); assay: Test Example 11: crop plant selectivity by upland field foliage treatment (corn), herbicidal effects; assay type: in vivo; parameters: scale not given here; conditions: upland field foliage treatment (corn test), dose 1.6 g ai/10a, 14th day after treatment
Outline: as §1

slender amaranth (Am) [7] = assay: as above; assay type: in vivo; parameters: scale not given here; conditions: upland field foliage treatment (corn test), dose 1.6 g ai/10a, 14th day after treatment
Outline: as §1

China jute (Ab) [8] = assay: as above; assay type: in vivo; parameters: scale not given here; conditions: upland field foliage treatment (corn test), dose 1.6 g ai/10a, 14th day after treatment
Outline: as §1

pale smartweed (Po) [9] = assay: as above; assay type: in vivo; parameters: scale not given here; conditions: upland field foliage treatment (corn test), dose 1.6 g ai/10a, 14th day after treatment
Outline: as §1

[10] = tested on: common lambsquarters (Ch); assay: Test Example 10: crop plant selectivity by upland field foliage treatment (soybean), herbicidal effects; assay type: in vivo; conditions: dose 1.6 g ai/10a, 14th day after treatment
Protocol: (§4) (Test on Crop Plant Selectivity by Upland Field Foliage Treatment)
(§5) In a plastic pot (surface area: 600 cm^2) filled with sand, soybean (Gl), pale smartweed (Po), slender amaranth (Am), common lambsquarters (Ch) and China jute (Ab) were sown and cultured in a green house for 2 weeks. […] The plants were then cultured in a green house, and the evaluation of the herbicidal effects and phytotoxicity was conducted on the 14th day after the treatment in accordance with the standards as identified in Table 47.

slender amaranth (Am) [11] = assay: as above; assay type: in vivo; conditions: dose 1.6 g ai/10a, 14th day after treatment
Protocol: as §4, §5

China jute (Ab) [12] = assay: as above; assay type: in vivo; conditions: dose 1.6 g ai/10a, 14th day after treatment
Protocol: as §4, §5

pale smartweed (Po) [13] = assay: as above; assay type: in vivo; conditions: dose 1.6 g ai/10a, 14th day after treatment
Protocol: as §4, §5

wheat (Tr) = assay: Test Example 9: crop plant selectivity by upland field foliage treatment (wheat), phytotoxicity; conditions: dose 1.6 g ai/10a, 14th day after treatment;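 further: grade of crop injury; 5 = at least 90%; 4 = 70 to 90%; 3 = 50 to 70%; 2 = 30 to 50%; 1 = 10 to 30%; 0 = under 10%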
Outline: as §2

Digitaria ciliaris (Di) = assay: Test Example 2: herbicidal effects by upland field soil treatment; assay type: in vivo; conditions: 100 g of the active ingredient per 10 ares, evaluated on the 21st day after application;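 further: grade of growth control; 5 = at least 90%; 4 = 70 to 90%; 3 = 50 to 70%; 2 = 30 to 50%; 1 = 10 to 30%; 0 = under 10%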
Source text: (§6) (Test on Herbicidal Effects by Upland Field Soil Treatment)

[14] = tested on: common lambsquarters (Ch); assay: as above; assay type: in vivo; conditions: 100 g of the active ingredient per 10 ares, evaluated on the 21st day after application
Source text: as §6

slender amaranth (Am) [15] = assay: as above; assay type: in vivo; conditions: 100 g of the active ingredient per 10 ares, evaluated on the 21st day after application
Source text: as §6

pale smartweed (Po) [16] = assay: as above; assay type: in vivo; conditions: 100 g of the active ingredient per 10 ares, evaluated on the 21st day after application
Source text: as §6

barnyardgrass (Ec) [17] = assay: as above; assay type: in vivo; conditions: 100 g of the active ingredient per 10 ares, evaluated on the 21st day after application
Source text: as §6

rice flatsedge (Ci) [18] = assay: as above; assay type: in vivo; conditions: 100 g of the active ingredient per 10 ares, evaluated on the 21st day after application
Source text: as §6

soybean (Gl) = assay: Test Example 10: crop plant selectivity by upland field foliage treatment (soybean), phytotoxicity; conditions: dose 1.6 g ai/10a, 14th day after treatment
Protocol: as §4, §5

[19] = tested on: common lambsquarters (Ch); assay: Test Example 3: herbicidal effects by upland field foliage treatment; assay type: in vivo; parameters: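 grade of growth control; 5 = at least 90%; 4 = 70 to 90%; 3 = 50 to 70%; 2 = 30 to 50%; 1 = 10 to 30%; 0 = under 10%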; conditions: 100 g active ingredient per 10 ares, evaluated 14th day after treatment
Outline: (§7)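 Scoring used a standard effect scale on the 14th day post-treatment, with plants held in a greenhouse throughout. Foliar application was made to weeds raised from seed in sand-filled pots for 2 weeks.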

slender amaranth (Am) [20] = assay: as above; assay type: in vivo; parameters: scale not given here; conditions: 100 g active ingredient per 10 ares, evaluated 14th day after treatment
Outline: as §7

pale smartweed (Po) [21] = assay: as above; assay type: in vivo; parameters: scale not given here; conditions: 100 g active ingredient per 10 ares, evaluated 14th day after treatment
Outline: as §7

Diaitaria ciliaris (Di) = assay: as above; assay type: in vivo; parameters: scale not given here; conditions: 100 g active ingredient per 10 ares, evaluated 14th day after treatment
Outline: as §7

barnyardgrass (Ec) [22] = assay: as above; assay type: in vivo; parameters: scale not given here; conditions: 100 g active ingredient per 10 ares, evaluated 14th day after treatment
Outline: as §7

rice flatsedge (Ci) [23] = assay: as above; assay type: in vivo; parameters: scale not given here; conditions: 100 g active ingredient per 10 ares, evaluated 14th day after treatment
Outline: as §7

Structure (SMILES): C#CCOCc1cc(-c2ccc(C(F)(F)F)n(C)c2=O)c(F)cc1Cl [Compound No. 1-199, 3-(4-chloro-2-fluoro-5-propargyloxymethylphenyl)-1-methyl-6-trifluoromethyl-2(1H)-pyridone]
- Phytotoxicity Ze (corn (Ze)): 2
- melting point: 99 to 101 °C
- Herbicidal effects Ch [1]: 5
- Herbicidal effects Am (slender amaranth (Am) [2]): 5
- Herbicidal effects Ab (China jute (Ab) [3]): 5
- Herbicidal effects Po (pale smartweed (Po) [4]): 5
- Herbicidal effects Mo (monochoria (Mo)): 5
- Herbicidal effects Ec (barnyardgrass (Ec) [5]): 5
- Herbicidal effects Sc (bulrush (Sc)): 5
- Herbicidal effects Ch [6]: 5
- Herbicidal effects Am (slender amaranth (Am) [7]): 5
- Herbicidal effects Ab (China jute (Ab) [8]): 5
- Herbicidal effects Po (pale smartweed (Po) [9]): 5
- Herbicidal effects Ch [10]: 5
- Herbicidal effects Am (slender amaranth (Am) [11]): 5
- Herbicidal effects Ab (China jute (Ab) [12]): 5
- Herbicidal effects Po (pale smartweed (Po) [13]): 5
- Phytotoxicity Tr (wheat (Tr)): 2
- Herbicidal effects Di (Digitaria ciliaris (Di)): 5
- Herbicidal effects Ch [14]: 5
- Herbicidal effects Am (slender amaranth (Am) [15]): 5
- Herbicidal effects Po (pale smartweed (Po) [16]): 5
- Herbicidal effects Ec (barnyardgrass (Ec) [17]): 5
- Herbicidal effects Ci (rice flatsedge (Ci) [18]): 5
- Phytotoxicity Gl (soybean (Gl)): 2
- Herbicidal effects Ch [19]: 5
- Herbicidal effects Am (slender amaranth (Am) [20]): 5
- Herbicidal effects Po (pale smartweed (Po) [21]): 5
- Herbicidal effects Di (Diaitaria ciliaris (Di)): 5
- Herbicidal effects Ec (barnyardgrass (Ec) [22]): 4
- Herbicidal effects Ci (rice flatsedge (Ci) [23]): 5
